Results taken from ChEMBL document CHEMBL5137036, “Design and synthesis of highly TRAIL expression HDAC inhibitors based on ONC201 to promote apoptosis of colorectal cancer” (Eur J Med Chem, 2022).
Calls of active or inactive are those of the source. The rule behind the calls is not given here.

How the values were obtained:
[1] = test system: HCT-116; assay: Antiproliferative activity against human HCT-116 cells assessed as inhibition of cell growth incubated for 72 hrs by luminescence based analysis; assay type: functional; settings: HCT-116, 72 h
[2] = test system: HepG2; assay: Antiproliferative activity against human HepG2 cells assessed as inhibition of cell growth incubated for 72 hrs by luminescence based analysis; assay type: functional; settings: HepG2, 72 h
[3] = target: T1, Histone deacetylase 1 (Homo sapiens, UniProt Q13547); assay: Inhibition of human HDAC1 using RHKKAc fluorogenic peptide as substrate preincubated for 10 mins followed by substrate addition by fluorescence based analysis
T1 sequence (Q13547 whole entry): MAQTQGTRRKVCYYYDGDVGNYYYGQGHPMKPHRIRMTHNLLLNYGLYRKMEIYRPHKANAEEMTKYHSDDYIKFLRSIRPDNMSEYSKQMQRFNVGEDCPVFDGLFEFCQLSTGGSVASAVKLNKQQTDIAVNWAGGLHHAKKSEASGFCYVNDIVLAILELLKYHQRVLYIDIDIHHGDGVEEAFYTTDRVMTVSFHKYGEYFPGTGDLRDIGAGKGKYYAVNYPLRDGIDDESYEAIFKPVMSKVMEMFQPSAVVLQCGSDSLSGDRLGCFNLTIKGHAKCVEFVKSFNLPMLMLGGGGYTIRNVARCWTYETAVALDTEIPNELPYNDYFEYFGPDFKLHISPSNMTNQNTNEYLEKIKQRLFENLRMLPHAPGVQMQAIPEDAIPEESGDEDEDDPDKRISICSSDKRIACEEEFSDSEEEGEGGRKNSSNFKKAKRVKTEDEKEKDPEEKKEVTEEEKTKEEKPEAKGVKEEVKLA

[4] = test system: MV4-11; assay: Antiproliferative activity against human MV4-11 cells assessed as inhibition of cell growth incubated for 72 hrs by luminescence based analysis; assay type: functional; settings: MV4-11, 72 h
[5] = target: T1, Histone deacetylase 1; assay: Inhibition of human HDAC1 assessed as residual activity at 1 uM using RHKKAc fluorogenic peptide as substrate preincubated for 10 mins followed by substrate addition by fluorescence based analysis relative to control
[6] = target: T1, Histone deacetylase 1; assay: Inhibition of HDAC1 in human HCT-116 cells assessed as increase in DR5 protein expression at 0.5 uM incubated for 12 hrs by Western blot analysis; assay type: cell-based
[7] = test system: HCT-116; assay: Induction of apoptosis in human HCT-116 cells assessed as dead cells at 0.5 uM incubated for 24 hrs by AnnexinV-FITC/PI staining based flow cytometry (reference value: 4.62 %); assay type: functional
[8] = test system: HCT-116; assay: Induction of apoptosis in human HCT-116 cells assessed as early apoptotic cells at 0.5 uM incubated for 24 hrs by AnnexinV-FITC/PI staining based flow cytometry (reference value: 0.93 %); assay type: functional
[9] = test system: HCT-116; assay: Induction of apoptosis in human HCT-116 cells assessed as viable cells at 0.5 uM incubated for 24 hrs by AnnexinV-FITC/PI staining based flow cytometry (reference value: 93.64%); assay type: functional; settings: read-out: Activity
[10] = test system: HCT-116; assay: Induction of apoptosis in human HCT-116 cells assessed as late apoptotic cells at 0.5 uM incubated for 24 hrs by AnnexinV-FITC/PI staining based flow cytometry (reference value: 0.82 %); assay type: functional
[11] = test system: HCT-116; assay: Antiproliferative activity against human HCT-116 cells assessed as residual activity at 2 uM incubated for 72 hrs by luminescence based analysis relative to control; assay type: functional

| IC50 [2] [µM] | IC50 [3] [nM] | IC50 [4] [nM] | Activity [5] [%] | Structure (SMILES) | further results |
| --- | --- | --- | --- | --- | --- |
| 6.17 | 278 | 1450 |  | Nc1ccccc1NC(=O)c1ccc(CN2C(=O)C3=C(CCN(C(=O)/C=C/c4ccc(Cl)cc4F)C3)N3CCN=C23)cc1 | IC50 [1]: 662 nM |
| 3.56 | 253 | 801 |  | Cc1ccccc1CN1C(=O)C2=C(CCN(Cc3ccc(C(=O)Nc4ccccc4N)cc3)C2)N2CCN=C12 | IC50 [1]: 1080 nM |
| 4.49 | 66.9 | 1270 |  | NC1=C(CCCc2ccccc2)C(=O)N(Cc2ccc(C(=O)Nc3ccccc3N)cc2)C2=NCCN21 | IC50 [1]: 673 nM; inhibition [6]: Active |
|  |  |  | 78.3 | Nc1cc(F)ccc1NC(=O)c1ccc(CN2C(=O)C3=C(CCN(Cc4ccccc4)C3)N3CCN=C23)cc1 |  |
|  |  |  | 68 | Cc1ccccc1CN1CCC2=C(C1)C(=O)N(Cc1ccc(C(=O)Nc3ccc(F)cc3N)cc1)C1=NCCN12 |  |
|  |  |  | 49.1 | Nc1ccccc1NC(=O)c1ccc(CN2CCC3=C(C2)C(=O)N(Cc2cccc(F)c2)C2=NCCN23)cc1 |  |
|  |  |  | 44.4 | COc1ccc(CN2CCC3=C(C2)C(=O)N(Cc2ccc(C(=O)Nc4ccccc4N)cc2)C2=NCCN23)cc1 |  |
|  | 413 |  |  | NC1=C(CCCc2ccccc2)C(=O)N(Cc2ccc(C(=O)Nc3ccc(F)cc3N)cc2)C2=NCCN21 |  |
|  |  |  | 52.2 | Nc1ccccc1NC(=O)c1ccc(CN2C(=O)C3=C(CCN(Cc4ccc(Cl)c(C(F)(F)F)c4)C3)N3CCN=C23)cc1 |  |

Further lines, the molecule ahead of its results:

| Structure (SMILES) | IC50 [2] [µM] | IC50 [3] [nM] | IC50 [4] [nM] | Activity [5] [%] | further results |
| --- | --- | --- | --- | --- | --- |
| CNC1=C(CCCc2ccccc2)C(=O)N(Cc2ccc(C(=O)Nc3ccccc3N)cc2)C2=NCCN21 |  |  |  | 63.8 |  |
| CC(c1ccccc1)N1C(=O)C2=C(CCN(Cc3ccc(C(=O)Nc4ccccc4N)cc3)C2)N2CCN=C21 (stereo not drawn) |  |  |  | 46.3 |  |
| N#Cc1ccc(CN2C(=O)C3=C(CCN(Cc4ccc(C(=O)Nc5ccccc5N)cc4)C3)N3CCN=C23)cc1 | 4.72 | 174 | 957 |  | IC50 [1]: 967 nM |
| Nc1ccccc1NC(=O)c1ccc(CN2C(=O)C3=C(CCN(Cc4ccccc4)C3)N3CCN=C23)cc1 | 4 | 198 | 753 |  | IC50 [1]: 1450 nM; inhibition [6]: Active |
| Nc1ccccc1NC(=O)c1ccc(CN2C(=O)C(CCCc3ccccc3)=C(O)N3CCN=C23)cc1 |  | 600 |  |  |  |
| Nc1cc(F)ccc1NC(=O)c1ccc(CNC(=O)/C=C/c2cccnc2)cc1 [TUCIDINOSTAT] | 2 |  | 783 |  | Activity [7]: 8.27%; Activity [8]: 1.22%; viability at 0.5 µM [9]: 88.8%; Activity [10]: 1.66% |
| Cc1ccc(/C=C/C(=O)N2CCC3=C(C2)C(=O)N(Cc2ccc(C(=O)Nc4ccccc4N)cc2)C2=NCCN23)o1 | 4.52 | 377 | 2430 |  | Activity [11]: 79.55% |
| Nc1ccccc1NC(=O)c1ccc(CN2CCC3=C(C2)C(=O)N(Cc2cccnc2)C2=NCCN23)cc1 |  |  |  | 46.4 |  |
| Nc1ccccc1NC(=O)c1ccc(CN2C(=O)C3=C(CCN(Cc4nc5ccccc5[nH]4)C3)N3CCN=C23)cc1 |  |  |  | 58.3 |  |
| Nc1ccccc1NC(=O)c1ccc(CN2C(=O)C3=C(CCN(Cc4ccc5ccccc5c4)C3)N3CCN=C23)cc1 |  |  |  | 58.1 |  |
| NC1=C(CCNC(=O)c2ccccc2)C(=O)N(Cc2ccc(C(=O)Nc3ccccc3N)cc2)C2=NCCN21 | 1.27 | 273 | 828 |  | Activity [11]: 88.98% |
